# Activity calls are given as the source filed them. The calls are words filed in the database; no cut-off is given here.
# Columns and labels:
# [1] = target: T1, Muscarinic acetylcholine receptor M4 (Homo sapiens) (UniProt P08173); assay: Positive allosteric modulation of human M4 receptor/Gqi5 in presence of EC20 acetylcholine by calcium mobilization assay relative to acetylcholine; format: functional; conditions: filed as positive allosteric modulator
# T1 sequence (whole entry): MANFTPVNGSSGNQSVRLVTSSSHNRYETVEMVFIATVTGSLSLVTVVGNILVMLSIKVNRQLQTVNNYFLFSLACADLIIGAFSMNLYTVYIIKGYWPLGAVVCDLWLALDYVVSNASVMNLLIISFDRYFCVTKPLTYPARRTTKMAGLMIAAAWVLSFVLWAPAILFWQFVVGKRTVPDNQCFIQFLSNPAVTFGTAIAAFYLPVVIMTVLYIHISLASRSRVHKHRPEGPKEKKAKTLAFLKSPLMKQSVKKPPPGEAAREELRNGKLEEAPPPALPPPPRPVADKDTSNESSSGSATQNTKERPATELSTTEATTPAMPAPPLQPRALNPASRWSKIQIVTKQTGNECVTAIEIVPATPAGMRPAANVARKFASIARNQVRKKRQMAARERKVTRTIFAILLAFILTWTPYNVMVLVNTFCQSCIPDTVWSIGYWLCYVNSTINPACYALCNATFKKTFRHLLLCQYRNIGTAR
# [2] = Unbound brain-to-plasma concentration ratio in Sprague-Dawley rat at 0.1 to 0.2 mg/kg, iv measured after 0.25 hrs; format: ADME, organism-based; conditions: dose 0.1-0.2 mg/kg, read-out: K(p,uu,brain)
# [3] = Fraction unbound in rat plasma; format: ADME, cell-free
# [4] = target: T2, Muscarinic acetylcholine receptor M5 (Homo sapiens) (UniProt P08912); assay: Positive allosteric modulation of human M5 receptor
# T2 sequence (whole entry): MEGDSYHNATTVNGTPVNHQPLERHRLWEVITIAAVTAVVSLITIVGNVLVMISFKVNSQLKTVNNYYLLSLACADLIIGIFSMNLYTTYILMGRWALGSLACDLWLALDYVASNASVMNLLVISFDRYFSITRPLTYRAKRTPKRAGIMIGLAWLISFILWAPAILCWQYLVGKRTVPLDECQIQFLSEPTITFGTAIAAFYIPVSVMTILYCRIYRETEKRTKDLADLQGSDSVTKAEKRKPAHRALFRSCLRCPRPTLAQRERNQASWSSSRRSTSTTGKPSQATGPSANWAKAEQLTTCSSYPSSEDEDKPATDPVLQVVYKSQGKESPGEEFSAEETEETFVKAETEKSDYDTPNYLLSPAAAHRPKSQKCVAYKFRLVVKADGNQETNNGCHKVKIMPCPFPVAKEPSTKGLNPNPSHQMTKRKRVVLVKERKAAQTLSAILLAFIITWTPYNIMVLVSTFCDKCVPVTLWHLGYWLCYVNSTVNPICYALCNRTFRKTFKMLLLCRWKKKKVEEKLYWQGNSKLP
# [5] = target: T3, Muscarinic acetylcholine receptor M4 (Homo sapiens, UniProt P08173); assay: Positive allosteric modulation of human M4 receptor/Gqi5 in presence of EC20 acetylcholine by calcium mobilization assay; format: functional
# T3 sequence (P08173 whole entry): T1 sequence (whole entry)
# [6] = Hepatic clearance in human; format: ADME
# [7] = Fraction unbound in human plasma; format: ADME, cell-free
# [8] = target: T4, Muscarinic acetylcholine receptor M2 (Homo sapiens, UniProt P08172); assay: Positive allosteric modulation of human M2 receptor/Gqi5 in presence of EC20 acetylcholine by calcium mobilization assay
# T4 sequence (P08172 whole entry): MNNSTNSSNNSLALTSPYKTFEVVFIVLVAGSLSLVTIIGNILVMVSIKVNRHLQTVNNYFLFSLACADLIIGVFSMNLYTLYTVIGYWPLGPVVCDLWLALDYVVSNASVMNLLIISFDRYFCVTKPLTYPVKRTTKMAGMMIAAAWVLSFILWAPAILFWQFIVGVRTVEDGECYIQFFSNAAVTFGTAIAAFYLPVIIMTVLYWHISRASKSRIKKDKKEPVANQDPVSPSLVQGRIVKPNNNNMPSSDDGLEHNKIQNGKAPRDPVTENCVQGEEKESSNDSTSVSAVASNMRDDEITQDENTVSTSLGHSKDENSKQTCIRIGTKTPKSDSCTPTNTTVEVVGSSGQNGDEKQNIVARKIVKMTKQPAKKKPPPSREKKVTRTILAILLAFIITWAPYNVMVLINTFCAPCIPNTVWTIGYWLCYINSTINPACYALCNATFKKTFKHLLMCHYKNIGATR
# [9] = system: P-gp; assay: Substrate activity at human P-gp expressed in MDCK-MDR1 cells assessed as efflux ratio; format: ADME, cell-based
# [10] = target: Muscarinic acetylcholine receptor M3 (Homo sapiens, UniProt P20309); assay: Positive allosteric modulation of human M3 receptor
# Chain of Muscarinic acetylcholine receptor M3 (P20309 whole entry, looked up): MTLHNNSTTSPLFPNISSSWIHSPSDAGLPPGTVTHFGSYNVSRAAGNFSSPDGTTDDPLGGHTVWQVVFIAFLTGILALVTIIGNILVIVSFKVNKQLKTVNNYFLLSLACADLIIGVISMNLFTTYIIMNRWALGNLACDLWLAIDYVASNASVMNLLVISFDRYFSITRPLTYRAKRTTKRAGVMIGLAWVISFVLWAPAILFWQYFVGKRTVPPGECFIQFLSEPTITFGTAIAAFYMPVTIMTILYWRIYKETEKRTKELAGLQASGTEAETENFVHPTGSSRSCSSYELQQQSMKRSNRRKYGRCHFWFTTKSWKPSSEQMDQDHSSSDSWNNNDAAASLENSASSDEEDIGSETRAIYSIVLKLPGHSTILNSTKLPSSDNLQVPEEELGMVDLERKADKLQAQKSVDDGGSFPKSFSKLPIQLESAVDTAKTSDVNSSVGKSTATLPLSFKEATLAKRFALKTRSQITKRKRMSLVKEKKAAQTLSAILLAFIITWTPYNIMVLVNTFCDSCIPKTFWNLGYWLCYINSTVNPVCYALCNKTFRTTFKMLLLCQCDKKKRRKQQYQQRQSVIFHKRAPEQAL
# [11] = Brain to plasma permeability coefficient, Kp in Sprague-Dawley rat at 0.1 to 0.2 mg/kg, iv measured after 0.25 hrs; format: ADME, organism-based; conditions: dose 0.1-0.2 mg/kg
# [12] = target: T5, Muscarinic acetylcholine receptor M1 (Homo sapiens) (UniProt P11229); assay: Positive allosteric modulation of human M1 receptor
# T5 sequence (whole entry): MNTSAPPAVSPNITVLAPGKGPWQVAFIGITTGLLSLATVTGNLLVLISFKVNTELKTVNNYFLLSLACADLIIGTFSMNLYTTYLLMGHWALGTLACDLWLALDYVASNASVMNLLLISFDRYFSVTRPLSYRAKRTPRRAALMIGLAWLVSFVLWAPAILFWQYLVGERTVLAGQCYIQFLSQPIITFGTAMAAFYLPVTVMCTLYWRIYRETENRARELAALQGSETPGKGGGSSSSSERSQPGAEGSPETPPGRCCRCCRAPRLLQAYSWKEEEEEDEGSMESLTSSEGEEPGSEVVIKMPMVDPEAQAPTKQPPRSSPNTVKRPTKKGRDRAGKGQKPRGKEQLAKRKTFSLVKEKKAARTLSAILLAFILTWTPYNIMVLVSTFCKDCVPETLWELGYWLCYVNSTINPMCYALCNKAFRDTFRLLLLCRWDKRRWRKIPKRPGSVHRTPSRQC
# [13] = Hepatic clearance in rat; format: ADME; conditions: in vivo
# [14] = Fraction unbound in rat brain; format: ADME, tissue-based
# [15] = target: T4, Muscarinic acetylcholine receptor M2; assay: Positive allosteric modulation of human M2 receptor/Gqi5 in presence of EC20 acetylcholine by calcium mobilization assay relative to acetylcholine; conditions: read-out: %max
Compound,%max [1] [%],Kp uu at 0.25 h [2],fraction unbound [3],Activity [4],EC50 [5] [µM],CLH [6] [mL/min/kg],fraction unbound [7],EC50 [8] [µM],efflux ratio [9],Activity [10],Kp at 0.25 h [11],Activity [12],CLH [13] [mL/min/kg],fraction unbound [14],Emax [15] [%]
Cc1c(C(F)F)nnc2sc(C(=O)NC3CN(c4ncc(C(F)(F)F)cn4)C3)c(N)c12,49,0.88,0.017,inactive,0.15,10.1,0.02,> 30,3,inactive,0.29,inactive,18.8,0.062,
Cc1nnc2sc(C(=O)NC3CN(c4ncc(C(F)(F)F)cn4)C3)c(N)c2c1C,76,0.18,0.028,inactive,0.09,4.39,0.048,1.16,4,inactive,0.12,inactive,10.6,0.41,30

# Source: ChEMBL document CHEMBL4665653, “VU6005806/AZN-00016130, an advanced M positive allosteric modulator (PAM) profiled as a potential preclinical development candidate” (Bioorg Med Chem Lett, 2019)
